Assay results from US5151417A, “3-substituted vinyl cephalosporin derivatives” (Eisai Co., Ltd., priority 1989, dated 1992).
In brackets after ≈: the same amount, converted by molar mass. Like-named read-outs stand apart in the source and are kept apart here.

Columns and labels:
Format in all cases: cell-based
[1] = tested on: Serratia marcescens ES-75; test: In vitro antibacterial activity, Serratia marcescens ES-75 (Tables 2-6)
Procedure: (§1) Typical compounds out of the compounds described in Examples were classified into some groups. On each compound group, in vitro antibacterial activities were tested by a method known per se in the art.

[2] = tested on: Klebsiella pneumoniae EK-6; test: In vitro antibacterial activity, Klebsiella pneumoniae EK-6 (Tables 2-6)
Procedure: as §1

[3] = tested on: Morganella morganii EP-14; test: In vitro antibacterial activity, Morganella morganii EP-14 (Tables 2-6)
Procedure: as §1

[4] = tested on: Escherichia coli NIHJ; test: In vitro antibacterial activity, Escherichia coli NIHJ (Tables 2-6)
Procedure: as §1

[5] = tested on: Staphylococcus aureus 209-P; test: In vitro antibacterial activity, Staphylococcus aureus 209-P (Tables 2-6)
Procedure: as §1

[6] = Klebsiella pneumoniae, EK6, Klebsiella pneumoniae EK-6, read-out: MIC
[7] = Escherichia coli, Escherichia coli NIHJ, read-out: MIC
[8] = Staphylococcus aureus, 209P, Staphylococcus aureus 209-P, read-out: MIC
[9] = Serratia marcescens, ES75, Serratia marcescens ES-75, read-out: MIC
[10] = Morganella morganii, EP14, Morganella morganii EP-14, read-out: MIC

Structure (SMILES) | MIC [2, 6] | MIC [5, 8] | MIC ([1]; Serratia marcescens, ES75) | MIC ([2]; Klebsiella pneumoniae, EK6) | MIC ([3]; Morganella morganii, EP14) | MIC ([4]; Escherichia coli) | MIC ([5]; Staphylococcus aureus, 209P) | further results
CO/N=C(\C(=O)N[C@@H]1C(=O)N2C(C(=O)O)=C(/C=C/C3CCCO3)CS[C@H]12)c1csc(N)n1 (single isomer, unassigned) [48 A] | 0.2 µg/mL (≈ 0.417 µM) | 0.4 µg/mL (≈ 0.834 µM) |  |  |  |  |  | MIC ([1]; Serratia marcescens ES-75): 0.025 µg/mL (≈ 0.0521 µM); MIC ([3]; Morganella morganii EP-14): 0.025 µg/mL (≈ 0.0521 µM); MIC [4, 7]: 0.4 µg/mL (≈ 0.834 µM)
CO/N=C(\C(=O)N[C@@H]1C(=O)N2C(C(=O)O)=C(/C=C/C3CCCO3)CS[C@H]12)c1csc(N)n1 (single isomer, unassigned) [48 B] |  |  |  |  |  |  |  | MIC ([1]; Serratia marcescens ES-75): 0.1 µg/mL (≈ 0.209 µM); MIC ([2]; Klebsiella pneumoniae EK-6): 0.4 µg/mL (≈ 0.834 µM); MIC ([3]; Morganella morganii EP-14): 0.2 µg/mL (≈ 0.417 µM); MIC ([4]; Escherichia coli NIHJ): 0.8 µg/mL (≈ 1.67 µM); MIC ([5]; Staphylococcus aureus 209-P): 0.8 µg/mL (≈ 1.67 µM)
Nc1nc(/C(=N/O)C(=O)N[C@@H]2C(=O)N3C(C(=O)O)=C(/C=C/C4CCCO4)CS[C@H]23)cs1 (single isomer, unassigned) [50 A] | 0.2 µg/mL (≈ 0.43 µM) | 0.1 µg/mL (≈ 0.215 µM) |  |  |  |  |  | MIC ([1]; Serratia marcescens ES-75): 0.1 µg/mL (≈ 0.215 µM); MIC ([3]; Morganella morganii EP-14): 0.05 µg/mL (≈ 0.107 µM); MIC ([4]; Escherichia coli NIHJ): 0.2 µg/mL (≈ 0.43 µM)
Nc1nc(/C(=N/O)C(=O)N[C@@H]2C(=O)N3C(C(=O)O)=C(/C=C/C4CCCO4)CS[C@H]23)cs1 (single isomer, unassigned) [50 B] |  |  |  |  |  |  |  | MIC ([1]; Serratia marcescens ES-75): 0.4 µg/mL (≈ 0.859 µM); MIC ([2]; Klebsiella pneumoniae EK-6): 0.4 µg/mL (≈ 0.859 µM); MIC ([3]; Morganella morganii EP-14): 0.2 µg/mL (≈ 0.43 µM); MIC ([4]; Escherichia coli NIHJ): 0.8 µg/mL (≈ 1.72 µM); MIC ([5]; Staphylococcus aureus 209-P): 0.1 µg/mL (≈ 0.215 µM)
CO/N=C(\C(=O)N[C@@H]1C(=O)N2C(C(=O)O)=C(/C=C\c3cncnc3)CS[C@H]12)c1csc(N)n1 [Example 14] | 0.2 µg/mL (≈ 0.41 µM) | 0.8 µg/mL (≈ 1.64 µM) |  |  |  |  |  | MIC [1, 9]: 0.8 µg/mL (≈ 1.64 µM); MIC [3, 10]: 0.05 µg/mL (≈ 0.103 µM); MIC [4, 7]: 0.4 µg/mL (≈ 0.82 µM)
Nc1nc(/C(=N/O)C(=O)N[C@@H]2C(=O)N3C(C(=O)[O-])=C(/C=C\c4cncnc4)CS[C@H]23)cs1.[Na+] [Example 16, Sodium 7β-[(Z)-2-(2-aminothiazol-4-yl)-2-(hydroxyimino)acetamido]-3-[(Z)-2 (pyrimidin-5-yl)vinyl]-3-cephem-4-carboxylate] |  |  | > 100 µg/mL | 0.05 µg/mL | 0.012 µg/mL | 0.1 µg/mL | 0.2 µg/mL | 
Cc1ncc(/C=C\C2=C(C(=O)O)N3C(=O)[C@@H](NC(=O)/C(=N\O)c4csc(N)n4)[C@H]3SC2)cn1 [Example 21] | 0.1 µg/mL (≈ 0.205 µM) | 0.2 µg/mL (≈ 0.41 µM) |  |  |  |  |  | MIC [1, 9]: 0.2 µg/mL (≈ 0.41 µM); MIC [3, 10]: 0.025 µg/mL (≈ 0.0513 µM); MIC [4, 7]: 0.2 µg/mL (≈ 0.41 µM)
Nc1nc(/C(=N/O)C(=O)N[C@@H]2C(=O)N3C(C(=O)[O-])=C(/C=C/c4cncnc4N)CS[C@H]23)cs1.[Na+] [Example 23, Sodium 7β[(Z)-2-(2-aminothiazol-4-yl)-2-(hydroxyimino)acetamido]-3-[(E)-2-(4-aminopyrimidin-5-yl)vinyl]-3-cephem-4-carboxylate] |  |  | > 100 µg/mL | 0.025 µg/mL | 0.012 µg/mL | 0.4 µg/mL | 0.2 µg/mL | 
COc1ncncc1/C=C\C1=C(C(=O)[O-])N2C(=O)[C@@H](NC(=O)/C(=N\O)c3csc(N)n3)[C@H]2SC1.[Na+] [Example 25, Sodium 7β-[(Z)-2-(2-aminothiazol-4-yl)-2-(hydroxyimino)acetamido]-3-[(Z)-2-(4-methoxypyrimidin-5-yl)vinyl]-3-cephem-4-carboxylate] |  |  | 0.2 µg/mL | 0.4 µg/mL | 0.1 µg/mL | 0.8 µg/mL | 0.2 µg/mL | 
CO/N=C(\C(=O)N[C@@H]1C(=O)N2C(C(=O)[O-])=C(/C=C/c3cnccn3)CS[C@H]12)c1csc(N)n1.[Na+] [Example 27, Sodium 7β-[(Z)-2-(2-aminothiazol-4-yl)-2-(methoxyimino)acetamido]-3-[(E)-2-(pyrazin-2-yl)vinyl]-3-cephem-4-carboxylate] |  |  | 0.05 µg/mL | 0.1 µg/mL | 0.05 µg/mL | 0.2 µg/mL | 0.8 µg/mL | 
CO/N=C(\C(=O)N[C@@H]1C(=O)N2C(C(=O)O)=C(/C=C/c3c(Cl)ncnc3Cl)CS[C@H]12)c1csc(N)n1 [Example 29 (E)] |  |  |  |  |  |  |  | MIC [1, 9]: 6.25 µg/mL (≈ 11.2 µM); MIC [3, 10]: 0.4 µg/mL (≈ 0.719 µM)
CO/N=C(\C(=O)N[C@@H]1C(=O)N2C(C(=O)[O-])=C(/C=C\c3c(Cl)ncnc3Cl)CS[C@H]12)c1csc(N)n1.[Na+] [Example 29 (Z), Sodium 7β-[(Z)-2-(2-aminothiazol-4-yl)-2-(methoxyimino)acetamido]-3-[(Z)-2-(4,6-dichloropyrimidin-5-yl)vinyl]-3-cephem-4-carboxylate] |  |  | 3.13 µg/mL | 7.56 µg/mL | 0.8 µg/mL | 3.13 µg/mL | 1.56 µg/mL | 
CN(C)C(=O)OC/C=C\C1=C(C(=O)[O-])N2C(=O)C(NC(=O)/C(=N\O)c3csc(N)n3)[C@H]2SC1.[Na+] (stereo partly drawn) [Example 30, Sodium 7-[(Z)-2-(2-aminothiazol-4-yl)-2-hydroxyiminoacetamido]-3-[(Z)-3-(N,N-dimethylcarbamoyloxy)-1-propenyl]-3-cephem-4-carboxylate] |  |  | 0.05 µg/mL | 0.2 µg/mL | 0.05 µg/mL | 0.2 µg/mL | 0.2 µg/mL | 
Nc1nc(/C(=N/O)C(=O)NC2C(=O)N3C(C(=O)O)=C(/C=C\COC(=O)N4CCOCC4)CSC23)cs1 (stereo not drawn) [Example 32, Sodium 7-[(Z)-2-(2-aminothiazol-4-yl)-2-hydroxyiminoacetamido]-3-[(Z)-3-(1-morphorinylcarbonyloxy)-1-propenyl]-3-cephem-4-carboxylate] | 0.1 µg/mL | 0.2 µg/mL |  |  |  |  |  | MIC [4, 7]: 0.2 µg/mL
CNC(=O)OC/C=C\C1=C(C(=O)[O-])N2C(=O)C(NC(=O)/C(=N\O)c3csc(N)n3)[C@H]2SC1.[Na+] (stereo partly drawn) [Example 33, Sodium 7-[(Z)-2-(2-aminothiazol-4-yl)-2-hydroxyiminoacetamido]-3-[(Z)-3-(N-methylcarbamoyloxy)-1-propenyl]-3-cephem-4-carboxylate] |  |  | 0.025 µg/mL | 0.012 µg/mL | ≤ 0.006 µg/mL | 0.025 µg/mL | 0.1 µg/mL | 
CNC(=O)OC/C=C\C1=C(C(=O)O)N2C(=O)C(NC(=O)/C(=N\OC)c3csc(N)n3)C2SC1 (stereo not drawn) [Example 38] | 0.05 µg/mL (≈ 0.101 µM) | 0.8 µg/mL (≈ 1.61 µM) |  |  |  |  |  | MIC [1, 9]: 0.05 µg/mL (≈ 0.101 µM); MIC [3, 10]: 0.012 µg/mL (≈ 0.0242 µM); MIC [4, 7]: 0.2 µg/mL (≈ 0.403 µM)
CC(C)NC(=O)OC/C=C\C1=C(C(=O)[O-])N2C(=O)C(NC(=O)/C(=N\O)c3csc(N)n3)[C@H]2SC1.[Na+] (stereo partly drawn) [Example 40, Sodium 7-[(Z)-2-(2-aminothiazol-4-yl)-2-hydroxyiminoacetamido]-3-[(Z)-3-(N-isopropylcarbamoyloxy)-1-propenyl]-3-cephem-4-carboxylate] |  |  | 0.05 µg/mL | 0.1 µg/mL | 0.025 µg/mL | 0.1 µg/mL | 0.2 µg/mL | 
CCNC(=O)OC/C=C\C1=C(C(=O)[O-])N2C(=O)C(NC(=O)/C(=N\O)c3csc(N)n3)[C@H]2SC1.[Na+] (stereo partly drawn) [Example 42, Sodium 7-[(Z)-2-(2-aminothiazol-4-yl)-2-hydroxyiminoacetamido]-3-[(Z)-3-(N-ethylcarbamoyloxy)-1-propenyl]-3-cephem-4-carboxylate] |  |  | 0.05 µg/mL | 0.05 µg/mL | ≤ 0.006 µg/mL | 0.05 µg/mL | 0.1 µg/mL | 
Nc1nc(/C(=N/O)C(=O)NC2C(=O)N3C(C(=O)[O-])=C(/C=C\COC(=O)NCCCl)CS[C@H]23)cs1.[Na+] (stereo partly drawn) [Example 44, Sodium 7-[(Z)-2-(2-aminothiazol-4-yl)-2-hydroxyiminoacetamido]-3-[(Z)-3-(N-(2-chloroethyl)carbamoyloxy)-1-propenyl]-3-cephem-4-carboxylate] |  |  | 0.05 µg/mL | 0.05 µg/mL | ≤ 0.006 µg/mL | 0.05 µg/mL | 0.1 µg/mL | 
